# PubChem BioAssay (NCI)
#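 Protocol summary: plate cells (96-well), add compound at 5 concentrations, incubate 48 h, interpolate endpoints linearly. TGI: concentration producing complete growth inhibition.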
# What was measured:
# Assay in all cases: NCI anticancer screen, dose series, 48 h
# [1] = tested on: COLO 205 colon
# [2] = tested on: EKVX NSCLC
# [3] = tested on: SNB-75 CNS
# [4] = tested on: DU-145 prostate
# [5] = tested on: NCI-H226 lung
# [6] = tested on: SK-MEL-5 melanoma
# [7] = tested on: RXF 393 renal
# [8] = tested on: NCI-H460 lung
# [9] = tested on: T-47D breast
# [10] = tested on: SR leukemia
# [11] = tested on: BT-549 breast
structure (smiles),measurement,setting,value
O=C1/C(=C/c2ccc(Cl)cc2)NC(=S)N1CN1CCOCC1,TGI,[1],> 100 µM
same,TGI,[2],> 100 µM
same,TGI,[3],> 100 µM
same,TGI,[4],> 100 µM
same,TGI,[5],> 100 µM
same,TGI,[6],> 100 µM
CCOC(OCC)c1ccc(/C=C/c2cc(OC)c(OC)c(OC)c2)cc1,TGI,[1],33.5 µM
same,TGI,[7],40.9 µM
same,TGI,[2],> 100 µM
same,TGI,[8],38.1 µM
same,TGI,[3],57.5 µM
same,TGI,[5],62.5 µM
same,TGI,[6],28.5 µM
COc1ccc2c(c1)N(C(C)=O)CN1C(=O)CCC21 (stereo not given),TGI,[1],> 100 µM
same,TGI,[7],> 100 µM
same,TGI,[2],> 100 µM
same,TGI,[8],> 100 µM
same,TGI,[9],> 100 µM
same,TGI,[3],> 100 µM
same,TGI,[4],> 100 µM
same,TGI,[5],> 100 µM
same,TGI,[6],> 100 µM
COc1ccc(/C=C2\N=C(c3ccccc3)N(Nc3nnc(NN4C(=O)/C(=C/c5ccc(OC)cc5)N=C4c4ccccc4)c4ccccc34)C2=O)cc1,TGI,[1],> 100 µM
same,TGI,[7],> 100 µM
same,TGI,[2],> 100 µM
same,TGI,[10],90.5 µM
same,TGI,[8],> 100 µM
same,TGI,[3],> 100 µM
same,TGI,[5],> 100 µM
same,TGI,[6],> 100 µM
COC1=CC(C2c3cc4c(cc3[C@@H](Nc3ccc([N+](=O)[O-])cc3)C3COC(=O)[C@H]23)OCO4)=CC(=O)C1=O (stereo not given in full),TGI,[1],73.2 µM
same,TGI,[7],86.8 µM
same,TGI,[2],> 95.2 µM
same,TGI,[8],7.08 µM
same,TGI,[3],16 µM
same,TGI,[5],6.65 µM
same,TGI,[6],19.9 µM
COC(=O)[C@H]1C=C[C@@H](C)n2c(=O)c3ccccc3c(=O)n21,TGI,[1],> 100 µM
same,TGI,[7],> 100 µM
same,TGI,[2],> 100 µM
same,TGI,[10],> 100 µM
same,TGI,[8],> 100 µM
same,TGI,[3],> 100 µM
same,TGI,[5],> 100 µM
same,TGI,[6],> 100 µM
CC1=Nc2c([nH]c(=S)[nH]c2=O)NC(c2ccc(Cl)c(Cl)c2)C1 (stereo not given),TGI,[1],32.7 µM
same,TGI,[7],38.2 µM
same,TGI,[2],> 68.3 µM
same,TGI,[10],> 100 µM
same,TGI,[8],> 100 µM
same,TGI,[3],> 100 µM
same,TGI,[5],48.8 µM
same,TGI,[6],> 60.7 µM
NC1=NC2(O)c3ccccc3C(=O)C2(O)N1 (stereo not given),TGI,[1],> 100 µM
same,TGI,[7],> 100 µM
same,TGI,[2],> 100 µM
same,TGI,[10],> 100 µM
same,TGI,[8],> 100 µM
same,TGI,[3],> 100 µM
same,TGI,[5],> 100 µM
same,TGI,[6],> 100 µM
NC1=CC(C(=O)c2ccncc2)c2nc3ccccc3nc21 (stereo not given),TGI,[1],> 100 µM
same,TGI,[7],> 100 µM
same,TGI,[2],> 100 µM
same,TGI,[8],> 100 µM
same,TGI,[9],> 100 µM
same,TGI,[3],> 100 µM
same,TGI,[11],> 100 µM
same,TGI,[4],> 100 µM
same,TGI,[5],> 100 µM
same,TGI,[6],> 100 µM
COc1ccc(-c2onc(-c3c(C)cc(C)cc3C)c2C2=NCCCN2)cc1,TGI,[1],> 100 µM
same,TGI,[7],> 100 µM
same,TGI,[2],> 100 µM
same,TGI,[10],> 100 µM
same,TGI,[8],> 100 µM
same,TGI,[5],> 100 µM
same,TGI,[6],60.9 µM
NC12CC3CC(C1)CC(Cl)(C3)C2,TGI,[1],> 100 µM
same,TGI,[7],> 100 µM
same,TGI,[2],> 100 µM
same,TGI,[8],> 100 µM
same,TGI,[3],> 100 µM
COc1ccc(CNc2nc(NCc3ccc(OC)cc3)nc(NC(C)C)n2)cc1,TGI,[1],33.9 µM
same,TGI,[7],38.5 µM
same,TGI,[2],93.2 µM
same,TGI,[10],> 100 µM
same,TGI,[8],17 µM
same,TGI,[9],> 100 µM
same,TGI,[3],> 100 µM
same,TGI,[4],66 µM
same,TGI,[6],16.5 µM
CN(C)CCCSc1c2ccccc2nc2cc(NCC(=O)Nc3ccccc3-c3ccccc3NC(=O)CNc3ccc4c(SCCCN(C)C)c5ccccc5nc4c3)ccc12,TGI,[1],> 100 µM
same,TGI,[7],> 100 µM
same,TGI,[2],> 100 µM
same,TGI,[10],> 100 µM
same,TGI,[8],> 100 µM
same,TGI,[3],> 100 µM
same,TGI,[5],> 100 µM
same,TGI,[6],> 100 µM
